This note sets out measurements from patent publication US20240352494A1, “HETEROLOGOUS PRODUCTION OF […] YEASTS” (ADAMA CHILE SA, priority 2021, published 2024).

The assay concerns A. thaliana seedlings. As to the kind of experiment: hypocotyl length assay (inhibition of hypocotyl elongation). Format: in vivo, A. thaliana Col-0. Particulars: tZ standard at 0.14, 0.28 and 0.56 mg/L (mean of all treatments, no significant difference between them); seedlings grown in darkness, measured after 8 days.

Method: The bioactivity of the produced cytokinins was tested in A. thaliana by hypocotyl length assay. This assay is based on the capacity of cytokinins to inhibit hypocotyl elongation in A. thaliana seedlings (Cary et al., 1995, Plant Physiol., 107 (4): 1075-1082). Seeds of A. thaliana Col-0 were surface sterilized, sown on 0.5× Murashige and Skoog (MS) medium (Murashige and Skoog, 1962, Physiol. Plant., 15(13):473-497) (0.7% agar) without sucrose, and stratified in darkness for 3 days at 4° C. Seedlings were grown in complete darkness in a growth cabinet at 21°° C. Hypocotyl lengths were determined after 8 days of growth, and at least 15 seedlings were measured for each treatment.

For the molecule `C/C(=C\CNc1ncnc2nc[nH]c12)CO` [tZ standard, trans-zeatin], the “mean reduction in hypocotyl lengths” value is recorded as 58%.
